Results on one sequence are retold here after PMC5874133 (Science immunology, 2018).

The subject of this assay is ZnT8_186–194-reactive CD8^+ T-cell clones. It is filed as cell-based, human. The following applies: MMr co-staining (Fig. 7D) and in-vitro recall (Fig. 7E); clones D222D 2, D349D 178B9, H017N A1, H328C 9C8.

As for KAANIVLTV [B. stercoris mimotope], the “ZnT8_186–194-reactive clones cross-recognizing the mimotope” value is given as 1 of 4.
